Data on twelve molecules can be found in US10399937B2, “Ionizable cationic lipid for RNA delivery” (Arcturus Therapeutics, Inc., priority 2013, dated 2019).

One series deals with Factor VII. Kind of series: In vivo mouse Factor VII silencing (siRNA in liposome formulations with the cationic lipid). The arrangement: species or system C57BL/6 mice. Particulars: C57BL6 mice; for ability to knockdown Factor VII in mouse plasma (FIGS. 1 and 2): 0.3 mg/kg, compared to controls (MC3, NC1, ATX-547, ATX-003); for Factor VII knockdown in mouse plasma (FIGS. 3 and 4): second series with MC3, NC1, ATX-547, ATX-004, ATX-006, ATX-010, ATX-001. Here is the method: Using a liver-directed in vivo screen of the liposome libraries, a series of compounds were tested that facilitate high levels of siRNA mediated gene silencing in hepatocytes, the cells comprising the liver parenchyma. Factor VII, a blood clotting factor, is a suitable target gene for assaying functional siRNA delivery to liver. Because this factor is produced specifically in hepatocytes, gene silencing indicates successful delivery to parenchyma, as opposed to delivery to the cells of the reticulo-endothelial system (e.g., Kupffer cells). Furthermore, Factor VII is a secreted protein that can be readily measured in serum, obviating the need to euthanize animals. Silencing at the mRNA level can be readily determined by measuring levels of protein. This is because the protein's short half-life (2-5 hour). C57BL/6 mice (Charles River Labs) received either saline or siRNA in liposome formulations via tail vein injection at a volume of 0.006 ml/g. At 48 h after administration, animals were anesthetized by isofluorane inhalation and blood was collected into serum separator tubes by retroorbital bleed. Serum levels of Factor VII protein were determined in samples using a chromogenic assay (Biophen FVII, Aniara Corporation) according to manufacturers' protocols. A standard curve was generated using serum collected from saline-treated animals.
Compositions with siRNA directed to […] were formulated with ATX-001, ATX-002, ATX-003, and ATX-547, and comparator samples NC1 and MC3 (Alnylam). These were injected into animals at 0.3 mg/kg and at 1 mg/kg. The siRNA encapsulated by MC3 (0.3 mg/kg), NC1 (0.3 mg/kg), ATX-547 (0.3 mg/kg), ATX-001 (0.3 and 1.0 mg/kg), ATX-002 (0.3 and 1.0 mg/kg), and ATX-003 (0.3 and 1.0 mg/kg) was measured for the ability to knockdown Factor VII in mouse plasma following administration of the siRNA formulation to C57BL6 mice.
The siRNA encapsulated MC3 (0.3 and 1.5 mg/kg), NC1 (0.3 mg/kg), ATX-547 (0.1 and 0.3 mg/kg), ATX-004 (0.3), ATX-006 (0.3 and 1.0 mg/kg), ATX-010 (0.3 mg/kg), and ATX-001 (0.3 and 1.5 mg/kg), was measured for Factor VII knockdown in mouse plasma following administration of the siRNA formulation to C57BL6 mice. […] The knockdown activity of the exemplary compounds is shown for 0.3 mg/kg or at 0.05 mg/kg for ATX-018, ATX-019, and ATX-020 (Table 1).

Series [1] is described as follows: pKa of the cationic lipid (Table 1). Type of series: physicochemical.

As a reminder, the pKa is the negative logarithm of the acid dissociation constant. The low end stands for a group that gives up its proton readily, the high end for a group that holds its proton tightly. Regarding `CCCCCC/C=C\COC(=O)CCCCCCCN(CCCCCCCC(=O)OC/C=C\CCCCCC)C(=O)CSCCN(C)C` [ATX-001], in the series on Factor VII, the “ability to knockdown Factor VII in mouse plasma (FIGS. 1 and 2)” value was “most effective”; the “Factor VII knockdown in mouse plasma (FIGS. 3 and 4)” value was “most effective”. Also, the pKa in series [1] is 8.9.
On to `CCCCCC/C=C\COC(=O)CCCCCCCN(CCCCCCCC(=O)OC/C=C\CCCCCC)C(=O)SCCN(C)C` [ATX-002], for which the “ability to knockdown Factor VII in mouse plasma (FIGS. 1 and 2)” value with Factor VII is “most effective”. The pKa in series [1] was determined as 8.7.
`CCCCCC/C=C\COC(=O)CCCCCCCN(CCCCCCCC(=O)OC/C=C\CCCCCC)C(=O)SCCCN(C)C` [ATX-003] came in with a pKa in series [1] of 9.3.
On the same count and under the same terms, for `CCCCCC/C=C\COC(=O)CCCCCCCN(CCCCCCCC(=O)OC/C=C\CCCCCC)C(=O)CSCCCN(C)C` [ATX-004] the value was 9.4; for `CCCCCC/C=C\COC(=O)CCCCCCCN(CCCCCCCC(=O)OC/C=C\CCCCCC)C(=O)CSCCN(C)CC` [ATX-005], 9; for `CCCCCC/C=C\COC(=O)CCCCCCCN(CCCCCCCC(=O)OC/C=C\CCCCCC)C(=O)CSCCN(CC)CC` [ATX-006], 9.8.
The molecule `CCCCCC/C=C\COC(=O)CCCCCCCN(CCCCCCCC(=O)OC/C=C\CCCCCC)C(=O)CSCCCN(C)CC` [ATX-007] came in with a pKa in series [1] of 9.5.
`CCCCCC/C=C\COC(=O)CCCCCCCN(CCCCCCCC(=O)OC/C=C\CCCCCC)C(=O)CSCCCN(CC)CC` [ATX-008]: in series [1], the pKa came out at 10.3.
Regarding `CCCCCC/C=C\COC(=O)CCCCCCCN(CCCCCCCC(=O)OC/C=C\CCCCCC)C(=O)SCCN(C)CC` [ATX-009], the pKa in series [1] is 8.8.
For the molecule `CCCCCC/C=C\COC(=O)CCCCCCCN(CCCCCCCC(=O)OC/C=C\CCCCCC)C(=O)SCCN(CC)CC` [ATX-010], the “Factor VII knockdown in mouse plasma (FIGS. 3 and 4)” value in the series on Factor VII was “most effective”. The molecule further gave a pKa in series [1] of 9.6.
As to `CCCCCC/C=C\COC(=O)CCCCCCCN(CCCCCCCC(=O)OC/C=C\CCCCCC)C(=O)SCCCN(C)CC` [ATX-011], in series [1], the pKa was 9.4.
Still for that read-out and setting: for `CCCCCC/C=C\COC(=O)CCCCCCCN(CCCCCCCC(=O)OC/C=C\CCCCCC)C(=O)SCCCN(CC)CC` [ATX-012] the value was 10.2.
